The text below walks through data of patent US8598159B2, “Therapeutic pyrazoloquinoline derivatives” (Dart Neuroscience (Cayman) Ltd., priority 2007, dated 2013).

Some results are limits rather than exact numbers.

Experiment [1] concerns GABAA receptors. Nature of the experiment: Electrophysiology assay (two-electrode voltage clamp, Xenopus oocytes expressing GABAA receptors). Type of experiment: cell-based. The settings on record: positive (Pos) or negative (Neg) modulation of current at GABA EC20, screening concentration of 10 μM. Here is the method:
The modulation of GABAA function is determined by changes in current as determined in an electrophysiology assay, as is detailed below.
mRNA was prepared from lyophilized plasmid pellets containing cDNA inserts encoding the specific GABAA receptor subunit. cDNAs encoding the α2, α3, and γ3 subunits were subcloned into pBluescript, SK^−. cDNAs encoding the a 1 and a 5 subunits were subcloned into prC while cDNA encoding the β2 subunit was subcloned into pcDNA1. The cDNA construct encoding the g 2s subunit is in the pGH19 expression construct. Overnight cultures of transformed DH5a bacterial cells were performed to grow sufficient quantities for maxiprep isolation of the plasmid cDNA. The resulting plasmid cDNA was linearized by digestion with an appropriate restriction enzyme that cleaves distal to the cDNA insert [XbaI (α1, β2), NotI (α3, γ2 s), SacII (α2), or ApaI (α5)]. Following digestion, plasmid cDNA was treated with proteinase K and extracted with phenol/chloroform/isoamyl alcohol, followed by ethanol precipitation. cDNA quality was assessed by agarose-gel electrophoresis (1.5% agarose gel). Samples were stored at −20° C. until use. In vitro transcription was performed with T7 RNA polymerase. mRNA was then stored at −80° C. until use. Plasmids were linearized with appropriate restriction enzymes before in vitro transcription using the Message Machine kit (Ambion, Austin, Tex.).
GABAA receptor expression in Xenopus oocytes: Following 45 min of 0.15% Tricaine anesthesia, an ovarian section containing the follicular oocytes was removed from the frog through a lateral abdominal incision. Oocytes were immediately placed in a calcium-free solution (NaCl 96 mM, MgCl2 1 mM, KCl 2 mM, Hepes 50 mM, pyruvate 2.5 mM, gentamycin 100 μg/mL, penicillin-streptomycin 50 U/mL, pH 7.4). Following 1.5-2 hour incubation in 0.2% collagenase (type II, Sigma Chemical Co., St. Louis, Mo.) at room temperature, individual Dumont stage V and VI oocytes were transferred to an incubator and maintained overnight in Barth's solution (NaCl 84 mM, NaHCO3 2.4 mM, MgSO4 0.82 mM, KCl 1 mM, Ca(NO3)2 0.33 mM, CaCl2 0.41 mM, Tris/HCl 7.5 mM, pyruvate 2.5 mM, gentamycin 50 μg/mL, penicillin-streptomycin, 100 units/mL, pH 7.4) at 18-20° C. and used for experiments 1-5 days post-injection. Oocytes were injected solution using an electronic microinjector (Drummond, Broomall, Pa.) with 50 nL of RNA containing 0.3-0.5 ng of each subunit RNA in a 1:1:2 ratio. The injected oocytes were used for experiments after 1-5 days of incubation in Barth's solution at 18-20° C.
Measurements of ion currents from oocytes expressing GABAA receptors were performed using a Warner two-electrode voltage-clamp amplifier (Warner Instruments, Inc., Foster City, Calif.) (Park-Chung, M. A., et al. (1999) Brain Res. 830: 72-87 incorporated herein in its entirety). Microelectrodes were fabricated from borosilicate glass capillaries with a programmed pipette puller (Sutter Instrument Co., CA). Microelectrode resistance was 1-3 MΩ when filled with 3 M KCl. The oocyte recording chamber was continuously perfused with ND-96 solution. Oocytes were clamped at a holding potential of −70 mV during data acquisition. The membrane current was filtered at 10 Hz and sampled at 100 Hz. Compounds were applied by a gravity-driven external perfusion system. The working volume of the recording chamber was […] and the rate of the perfusion was approximately […]. Compound application was 20-25 sec followed by a minimum of 150 sec wash. Data acquisition and external perfusion was computer controlled by custom-developed software. All experiments were performed at room temperature (22-24° C.). Dose-response data from each oocyte were fitted to the Hill equation by non-linear regression using the equation: IGABA=Emax/(1+(EC50/c)nH)
Emax is the maximum response, EC50 is the concentration producing 50% of the maximal response, nH is the Hill coefficient and c is the concentration of agonist. […]
For orientation: In two-electrode clamp one electrode senses voltage and the other passes current.

For experiment [2], the target named is GABAA central benzodiazepine receptor. Put plainly: Benzodiazepine binding assay ((3H)-flunitrazepam displacement). As to conditions: read-out: BZ binding assay (IC50); rat whole brain (except cerebellum), 1 nM (3H)-flunitrazepam, 60 minutes at 25° C.; 3-concentration dose response curve.

For `CN1CCN(c2ccc3c4nn(-c5ccccc5)c(=O)c-4c[nH]c3c2)CC1` [14b, 7-(4-Methylpiperazin-1-yl)-2-phenyl-2,5-dihydro-pyrazolo[4,3-c]quinolin-3-one], the “EP Result” value in experiment [1] is reported as “Neg”. For the same compound, the IC50 (commonly the midpoint of a concentration-inhibition curve) in experiment [2] was less than 1000 nM.
For `CC(C)N1CCN(c2ccc3[nH]cc4c(=O)n(-c5ccccc5)nc-4c3c2)CC1` [19b, 8-(4-Isopropylpiperazin-1-yl)-2-phenyl-2,5-dihydro-pyrazolo[4,3-c]quinolin-3-one], in that order: “Pos” and less than 1000 nM.
For `O=c1c2c[nH]c3ccc(N4CCOCC4)cc3c-2nn1-c1ccccn1` [19c, 8-Morpholin-4-yl-2-pyridin-2-yl-2,5-dihydro-pyrazolo[4,3-c]quinolin-3-one], in that order: “Neg” and less than 1000 nM.
For `CN1CCN(c2ccc3[nH]cc4c(=O)n(-c5ccc(Cl)cc5)nc-4c3c2)CC1` [7d, 2-(4′-Chlorophenyl)-8-(4-methylpiperazin-1-yl)-2,5-dihydro-pyrazolo[4,3-c]quinolin-3-one], in that order: “Pos” and less than 1000 nM.
`CN1CCN(c2ccc3[nH]cc4c(=O)n(-c5ccccc5)nc-4c3c2)CC1` [7b, 8-(4-Methylpiperazin-1-yl)-2-phenyl-2,5-dihydro-pyrazolo[4,3-c]quinolin-3-one]: the “EP Result” value in experiment [1] is on record as “Pos”. Moreover, the IC50 in experiment [2] is less than 1000 nM.
The corresponding values for `CN1CCN(c2cc3[nH]cc4c(=O)n(-c5ccccn5)nc-4c3cc2F)CC1` [28f, 8-Fluoro-7-(4-methylpiperazin-1-yl)-2-pyridin-2-yl-2,5-dihydro-pyrazolo[4,3-c]quinolin-3-one] are “Pos” and less than 1000 nM.
For `CN1CCN(c2ccc3c4nn(-c5ccc(Cl)cc5)c(=O)c-4c[nH]c3c2)CC1` [14d, 2-(4-Chlorophenyl)-7-(4-methylpiperazin-1-yl)-2,5-dihydro-pyrazolo[4,3-c]quinolin-3-one], in that order: “Neg” and less than 1000 nM.
